{"source": "patent US7550476B2", "about": "“Condensed polycyclic compounds” (Mitsubishi Tanabe Pharma Corporation, priority 2001, dated 2009)", "data": [{"system": "mouse (BDF1 strain, male)", "experiment": "Single-dose subcutaneous toxicity in mouse", "format": "in vivo", "details": "single dose 100 mg/kg subcutaneously, n=3, checked for 1 day", "description": "Further, the compounds [I] and compounds [I-C] of the present invention have the merit of being less toxic, and highly safe as a medicine. For example, 8,9-dimethoxy-6-phenyl-1,3,4,6,11,11a-hexahydro-2H-pyrazino[1,2-b]-isoquinoline was subcutaneously administered to a mouse (BDF1 strain, male, n=3) in a single dose (100 mg/kg) and the progress was checked for 1 day.", "values": [{"smiles": "COc1cc2c(cc1OC)C(c1ccccc1)N1CCNCC1C2", "note": "(centres unmarked) [Compound A, 8,9-dimethoxy-6-phenyl-1,3,4,6,11,11a-hexahydro-2H-pyrazino[1,2-b]isoquinoline]", "death": "no death was observed"}]}, {"system": "not given", "experiment": "not given", "details": "not given", "values": [{"smiles": "COc1cc2c(cc1OC)C(c1ccccc1)N1CCN(Cc3ccccc3)CC1C2.Cl.Cl", "note": "(centres unmarked)", "melting point": "198 to 203 °C (dec.)"}, {"smiles": "COc1cc2c(cc1OC)C(c1ccccc1)N1CCN(CSC)CC1C2.Cl.Cl", "note": "(centres unmarked)", "melting point": "217 to 220 °C (dec.)"}, {"smiles": "COc1cc2c(cc1OC)C(c1ccccc1)N1CCN(CC(=O)O)CC1C2.Cl.Cl", "note": "(centres unmarked)", "melting point": "214 to 217 °C (dec.)"}, {"smiles": "COc1cc2c(cc1OC)C(c1ccccc1)N1CCN(C(=O)c3ccccc3)CC1C2.Cl", "note": "(centres unmarked)", "melting point": "229 to 233 °C (dec.)"}, {"smiles": "COc1cc2cc(COC(C)=O)c(COC(C)=O)c(-c3ccnc(C4C(=O)CCCC4=O)c3)c2cc1OC", "melting point": "210 to 213 °C"}, {"smiles": "COc1cc2cc(CO)c(CO)c(-c3ccnc(C4C(=O)CCCC4=O)c3)c2cc1OC", "melting point": "> 220 °C"}, {"smiles": "COc1cc2c(cc1OC)C(c1ccc(OC(C)C)cc1)N1CCNCC1C2.Cl.Cl", "note": "(centres unmarked)", "melting point": "180 to 185 °C (dec.)"}]}]}
